PubChem BioAssay AID2060906 (Molecular Pharmacology Branch, DTP, NCI, 2025)
pIC50: −log10 of the molar value.

Tested on: 485176-168-R4-J1-PDC complex spheroid growth
Experiment: Anticancer human tumor 485176-168-R4-J1-PDC patient-derived pancreatic adenocarcinoma cell line growth inhibition [RAS]
Details: for pIC50: curve of first compound; for viability, T/C: stronger effect = lower value
Procedure, shortened: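 Agents were tested in combination matrices in half-log decrements from a top concentration at or near clinical Cmax (10 microM if undetermined). Targets were multi-cell spheroids of tumour lines plus HUVEC and MSC stromal cells.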
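Note: spheroids exposed to compounds for seven days before readout.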
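Throughout, for viability, T/C: luminescence viability expressed relative to DMSO vehicle wells set as 100%.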

`CCN1CCN(Cc2ccc(Nc3ncc(F)c(-c4cc(F)c5nc(C)n(C(C)C)c5c4)n3)nc2)CC1` + CCn1c(-c2cccnc2C(C)OC)c2c3cc(ccc31)N1CCOC(CC(NC(=O)C(C(C)C)N(C)C(=O)C3(F)CCN(C(=O)C#CC(C)(C)N(C)C)CC3)C(=O)N3CCCC(N3)C(=O)OCC(C)(C)C2)C1 gave a pIC50 (second compound 0.000949 µM) of under 6.00, a pIC50 (second compound 0.003 µM) of under 6.00 and a pIC50 (second compound 0.00949 µM) of under 6.00. The pIC50 (second compound 0.03 µM) was under 6.00, the pIC50 (second compound 0.0949 µM) was under 6.00 and the pIC50 (second compound 0.3 µM) was under 6.00. It also gave a viability, T/C (second compound 0.000949 µM, first compound 0.00316 µM) of 93.4%, a viability, T/C (second compound 0.000949 µM, first compound 0.01 µM) of 103% and a viability, T/C (second compound 0.000949 µM, first compound 0.0316 µM) of 100%. The viability, T/C (second compound 0.000949 µM, first compound 0.1 µM) was 83.7%, the viability, T/C (second compound 0.000949 µM, first compound 0.316 µM) was 96.5% and the viability, T/C (second compound 0.000949 µM, first compound 1 µM) was 64.5%. The viability, T/C (second compound 0.003 µM, first compound 0.00316 µM) was 92%, the viability, T/C (second compound 0.003 µM, first compound 0.01 µM) was 92.4% and the viability, T/C (second compound 0.003 µM, first compound 0.0316 µM) was 89.6%. For the same molecule, the viability, T/C (second compound 0.003 µM, first compound 0.1 µM) was 99.3%, the viability, T/C (second compound 0.003 µM, first compound 0.316 µM) was 74.2% and the viability, T/C (second compound 0.003 µM, first compound 1 µM) was 67.8%. The viability, T/C (second compound 0.00949 µM, first compound 0.00316 µM) was 101%, the viability, T/C (second compound 0.00949 µM, first compound 0.01 µM) was 101% and the viability, T/C (second compound 0.00949 µM, first compound 0.0316 µM) was 94.3%. The viability, T/C (second compound 0.00949 µM, first compound 0.1 µM) was 89.1%, the viability, T/C (second compound 0.00949 µM, first compound 0.316 µM) was 74.5% and the viability, T/C (second compound 0.00949 µM, first compound 1 µM) was 75%. For the same molecule, the viability, T/C (second compound 0.03 µM, first compound 0.00316 µM) was 86.2%, the viability, T/C (second compound 0.03 µM, first compound 0.01 µM) was 91% and the viability, T/C (second compound 0.03 µM, first compound 0.0316 µM) was 87.6%. It also gave a viability, T/C (second compound 0.03 µM, first compound 0.1 µM) of 72.8%, a viability, T/C (second compound 0.03 µM, first compound 0.316 µM) of 72% and a viability, T/C (second compound 0.03 µM, first compound 1 µM) of 67.4%. The viability, T/C (second compound 0.0949 µM, first compound 0.00316 µM) was 104%, the viability, T/C (second compound 0.0949 µM, first compound 0.01 µM) was 85.2% and the viability, T/C (second compound 0.0949 µM, first compound 0.0316 µM) was 84.4%. The viability, T/C (second compound 0.0949 µM, first compound 0.1 µM) was 75.9%, the viability, T/C (second compound 0.0949 µM, first compound 0.316 µM) was 80% and the viability, T/C (second compound 0.0949 µM, first compound 1 µM) was 74%. It also gave a viability, T/C (second compound 0.3 µM, first compound 0.00316 µM) of 80.7%, a viability, T/C (second compound 0.3 µM, first compound 0.01 µM) of 84.4% and a viability, T/C (second compound 0.3 µM, first compound 0.0316 µM) of 73.2%. For the same molecule, the viability, T/C (second compound 0.3 µM, first compound 0.1 µM) was 75.2%, the viability, T/C (second compound 0.3 µM, first compound 0.316 µM) was 75.9% and the viability, T/C (second compound 0.3 µM, first compound 1 µM) was 57.4%.

With `CCN1CCN(Cc2ccc(Nc3ncc(F)c(-c4cc(F)c5nc(C)n(C(C)C)c5c4)n3)nc2)CC1` + C#Cc1c(F)ccc2cc(O)cc(-c3ncc4c(N5CC6CCC(C5)N6)nc(OCC56CCCN5CC(F)C6)nc4c3F)c12 the pIC50 (second compound 0.0316 µM) was under 6.00, the pIC50 (second compound 0.1 µM) was under 6.00 and the pIC50 (second compound 0.316 µM) was under 6.00. It also gave a pIC50 (second compound 1 µM) of under 6.00, a pIC50 (second compound 3.16 µM) of under 6.00 and a pIC50 (second compound 10 µM) of under 6.00. For the same molecule, the viability, T/C (second compound 0.0316 µM, first compound 0.00316 µM) was 91.1%, the viability, T/C (second compound 0.0316 µM, first compound 0.01 µM) was 83.4% and the viability, T/C (second compound 0.0316 µM, first compound 0.0316 µM) was 101%. It also gave a viability, T/C (second compound 0.0316 µM, first compound 0.1 µM) of 100%, a viability, T/C (second compound 0.0316 µM, first compound 0.316 µM) of 73.9% and a viability, T/C (second compound 0.0316 µM, first compound 1 µM) of 64.9%. For the same molecule, the viability, T/C (second compound 0.1 µM, first compound 0.00316 µM) was 117%, the viability, T/C (second compound 0.1 µM, first compound 0.01 µM) was 109% and the viability, T/C (second compound 0.1 µM, first compound 0.0316 µM) was 79.7%. The viability, T/C (second compound 0.1 µM, first compound 0.1 µM) was 85.1%, the viability, T/C (second compound 0.1 µM, first compound 0.316 µM) was 78.8% and the viability, T/C (second compound 0.1 µM, first compound 1 µM) was 55.4%. For the same molecule, the viability, T/C (second compound 0.316 µM, first compound 0.00316 µM) was 97.1%, the viability, T/C (second compound 0.316 µM, first compound 0.01 µM) was 95.6% and the viability, T/C (second compound 0.316 µM, first compound 0.0316 µM) was 90.7%. The viability, T/C (second compound 0.316 µM, first compound 0.1 µM) was 104%, the viability, T/C (second compound 0.316 µM, first compound 0.316 µM) was 84.3% and the viability, T/C (second compound 0.316 µM, first compound 1 µM) was 63.9%. It also gave a viability, T/C (second compound 1 µM, first compound 0.00316 µM) of 96.8%, a viability, T/C (second compound 1 µM, first compound 0.01 µM) of 101% and a viability, T/C (second compound 1 µM, first compound 0.0316 µM) of 101%. The viability, T/C (second compound 1 µM, first compound 0.1 µM) was 86.8%, the viability, T/C (second compound 1 µM, first compound 0.316 µM) was 72% and the viability, T/C (second compound 1 µM, first compound 1 µM) was 70.1%. It also gave a viability, T/C (second compound 3.16 µM, first compound 0.00316 µM) of 110%, a viability, T/C (second compound 3.16 µM, first compound 0.01 µM) of 92.8% and a viability, T/C (second compound 3.16 µM, first compound 0.0316 µM) of 81.5%. The viability, T/C (second compound 3.16 µM, first compound 0.1 µM) was 92.8%, the viability, T/C (second compound 3.16 µM, first compound 0.316 µM) was 77.5% and the viability, T/C (second compound 3.16 µM, first compound 1 µM) was 61.3%. It also gave a viability, T/C (second compound 10 µM, first compound 0.00316 µM) of 103%, a viability, T/C (second compound 10 µM, first compound 0.01 µM) of 95.5% and a viability, T/C (second compound 10 µM, first compound 0.0316 µM) of 84.4%. For the same molecule, the viability, T/C (second compound 10 µM, first compound 0.1 µM) was 79.6%, the viability, T/C (second compound 10 µM, first compound 0.316 µM) was 96.6% and the viability, T/C (second compound 10 µM, first compound 1 µM) was 61.6%.
